For assay [1], the target named is 5-hydroxytryptamine receptor 1A (Rattus norvegicus) (UniProt P19327). The assay is described as follows: Ki ratio measured as the Ki values of dopamine receptor to that of 5-hydroxytryptamine 1A receptor.
Assay [2] has the same target. Description: Ki ratio measured as the Ki values of dopamine receptor to that of 5-hydroxytryptamine 1A receptor receptor.

Sequence of 5-hydroxytryptamine receptor 1A (Rattus norvegicus) (P19327 whole entry, looked up): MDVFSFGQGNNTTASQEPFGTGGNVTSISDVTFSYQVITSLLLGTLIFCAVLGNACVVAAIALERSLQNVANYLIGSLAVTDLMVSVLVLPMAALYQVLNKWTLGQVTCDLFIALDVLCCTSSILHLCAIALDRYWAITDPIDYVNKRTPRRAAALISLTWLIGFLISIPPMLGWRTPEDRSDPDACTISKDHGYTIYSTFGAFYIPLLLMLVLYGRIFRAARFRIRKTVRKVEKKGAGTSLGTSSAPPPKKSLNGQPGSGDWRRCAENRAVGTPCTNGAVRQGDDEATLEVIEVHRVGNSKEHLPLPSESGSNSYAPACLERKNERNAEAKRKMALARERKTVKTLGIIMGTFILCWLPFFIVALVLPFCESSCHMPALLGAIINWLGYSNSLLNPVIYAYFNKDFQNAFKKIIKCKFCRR

With `Clc1cccc2c1CC2CCN1CCN(c2cccc3c2OCCO3)CC1` (stereo unspecified), the Ki ratio in assay [1] turned out to be 26.9.

For `COc1ccccc1N1CCN(C[C@@H](C(=O)NC(C)(C)C)c2ccccc2)CC1`, the Ki ratio in assay [2] amounted to 12. Same read-out and setting: the result for `c1ccc2c(c1)CC2CCN1CCN(c2cccc3c2OCCO3)CC1` (stereo unspecified) reads 79.4.

For the compound `COc1cc2c(cc1OC)C(CCN1CCN(c3cccc4c3OCCO4)CC1)CC2` (stereo unspecified), the Ki ratio in assay [1] came out at 83.4. As to `c1ccc2c(c1)CC(N1CCN(c3cccc4c3OCCO4)CC1)C2`, in assay [2], the Ki ratio came to 195. `c1ccc2c(c1)CC(N1CCN(c3cccc4c3OCCCO4)CC1)C2`: the Ki ratio in assay [1] came out at 51.3.

The values above are taken from ChEMBL document CHEMBL1128459, “Characterization of potent and selective antagonists at postsynaptic 5-HT1A receptors in a series of N4-substituted arylpiperazines” (J Med Chem, 1995).
